Where two headings read alike, the source gives them in different places. Values belong to the molecule of their own block, whether it stands above or below them.
Columns and labels:
[1] = target: T1, Recombinant chicken sEH (Gallus gallus, UniProt Q45QT1); assay: Radiotracer epoxide hydrolase activity and kinetic parameters using t-DPPO as substrate; type: biochemical
Method: (§1) Epoxide hydrolase activity was measured using racemic [^3H]-trans-1,3-diphenylpropene oxide (t-DPPO) as substrate (Borhan, B. et al., Anal. Biochem. 231:188-200 (1995)). t-DPPO was previously synthesized and purified Borhan, B. et al., Anal. Biochem. 231:188-200 (1995)). 1 μL of a 5 mM solution of [^3H]t-DPPO in DMF was added to 100 μL of enzyme preparation in sodium phosphate buffer (0.1 M, pH 7.4) containing 0.1 mg/mL of BSA ([S]final=50 μM). The enzyme was incubated at 30 °C for 10 min, and the reaction quenched by addition of 60 μL of methanol and 200 μL of isooctane, which extracts the remaining epoxide from the aqueous phase. Extractions with 1-hexanol were performed in parallel to assess the possible presence of glutathione transferase activity which could also transform the substrate (Borhan, B. et al., Anal. Biochem. 231:188-200 (1995)). The activity was followed by measuring the quantity of radioactive diol formed in the aqueous phase using a scintillation counter (Wallac Model 1409, Gaithersburg, Md.). Assays were performed in triplicate.
A solution of [^3H] t-DPPO (1 μL in DMF) was added to 100 μL of enzyme preparation in sodium phosphate buffer (0.1 M, pH 7.4) containing 0.1 mg/mL of BSA ([S]final=50 μM). The Km determination was performed by fitting the data to the Michaelis-Menten equation using the nonlinear regression algorithm in SigmaPlot (SPSS, Inc., Chicago, Ill.) with an R-squared value of at least 0.97. The standard deviation was generated by performing the experiment three separate times in triplicate.

[2] = target: T2, mouse sEH (Mus musculus, UniProt P34914); conditions: t-DPPO as substrate, from Morisseau 2000; cited from earlier work
T2 sequence (P34914 1-554): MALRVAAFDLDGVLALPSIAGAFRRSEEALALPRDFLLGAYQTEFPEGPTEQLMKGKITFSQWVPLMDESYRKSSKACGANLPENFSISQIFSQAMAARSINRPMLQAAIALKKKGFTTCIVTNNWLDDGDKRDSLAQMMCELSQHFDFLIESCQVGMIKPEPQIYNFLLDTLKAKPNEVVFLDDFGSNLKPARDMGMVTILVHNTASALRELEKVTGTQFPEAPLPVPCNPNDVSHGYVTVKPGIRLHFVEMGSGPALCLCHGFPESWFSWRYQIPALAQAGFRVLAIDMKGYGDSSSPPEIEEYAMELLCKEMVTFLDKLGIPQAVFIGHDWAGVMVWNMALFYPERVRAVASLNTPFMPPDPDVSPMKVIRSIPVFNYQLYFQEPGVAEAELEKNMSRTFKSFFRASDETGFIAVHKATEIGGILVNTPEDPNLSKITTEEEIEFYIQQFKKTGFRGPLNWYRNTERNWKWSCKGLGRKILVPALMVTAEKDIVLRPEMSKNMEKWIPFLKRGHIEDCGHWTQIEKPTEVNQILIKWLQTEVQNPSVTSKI

[3] = target: T3, sEH (Homo sapiens, UniProt P34913); conditions: t-DPPO as substrate, from Morisseau 2000; cited from earlier work
T3 sequence (P34913 1-555): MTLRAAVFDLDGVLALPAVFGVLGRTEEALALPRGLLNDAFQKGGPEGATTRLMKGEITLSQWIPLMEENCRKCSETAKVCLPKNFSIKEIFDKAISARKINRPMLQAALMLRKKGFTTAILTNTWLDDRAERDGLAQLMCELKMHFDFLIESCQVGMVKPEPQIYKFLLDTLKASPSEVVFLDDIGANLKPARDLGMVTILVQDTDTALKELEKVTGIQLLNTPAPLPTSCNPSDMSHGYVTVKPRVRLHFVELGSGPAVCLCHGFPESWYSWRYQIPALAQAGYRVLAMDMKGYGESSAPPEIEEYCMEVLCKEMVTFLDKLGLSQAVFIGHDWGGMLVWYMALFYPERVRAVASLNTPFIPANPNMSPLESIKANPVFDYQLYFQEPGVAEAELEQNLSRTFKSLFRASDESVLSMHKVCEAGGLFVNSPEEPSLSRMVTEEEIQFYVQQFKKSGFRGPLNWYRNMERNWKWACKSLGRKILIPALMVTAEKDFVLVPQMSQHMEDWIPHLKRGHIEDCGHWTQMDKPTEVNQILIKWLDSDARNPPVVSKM

[4] = target: T1, Recombinant chicken sEH; assay: Non-radioactive epoxide hydrolase assay (HPLC-MS/MS), specific activity of substrates; type: biochemical; conditions: for Specific activity: compound as substrate, 50 μM, 30° C., 10 min
Method: The trans-9,10-epoxystearate was purchased (Sigma-Aldrich). A 5 mM solution of each substrate was made in ethanol for the EETs and methanol for the epoxystearate. The substrate solution (1 μL) was added to 100 μL of enzyme preparation in sodium phosphate buffer (0.1 M, pH 7.4) containing 0.1 mg/mL of BSA ([S]final=50 μM). The enzyme was incubated with the substrate at 30° C. for 10 min, and the reaction quenched by addition of 400 μL of methanol. The products were analyzed by HPLC-MS/MS as previously described (Newman, J. W. et al., J. Lipid Res. 43:1563-1578 (2002)) with the following exceptions. A 2.0×20 mm, 3-μm Luna C18 Mercury MS column (Phenomenex, Torrance, Calif.) was used with a 350 μL/min isocratic flow of […] (vol/vol/vol) acetonitrile/water/methanol with 0.1% glacial acetic acid for 2.5 min. Assays were performed in triplicate.

[5] = target: T2, mouse sEH; conditions: compound as substrate, from Chacos 1983; cited from earlier work
[6] = target: T1, Recombinant chicken sEH; assay: IC50 determination using [3H]-t-DPPO as substrate; type: biochemical
Method: The IC50 values reported herein were determined using racemic [^3H]-trans-1,3-diphenylpropene oxide (t-DPPO) as a substrate (Borhan, B. et al., Anal. Biochem. 231:188-200 (1995)). The inhibitors were synthesized as described (Morisseau, C. et al., Biochem. Pharmacol. 63:1599-1608 (2002)). Extracts of broiler hepatic cytosol or partially purified enzyme was diluted 50-fold in pH 7.4 0.1 M sodium phosphate buffer containing 0.1 mg/mL BSA, then incubated with the inhibitors for 5 min at 30° C. prior to substrate introduction. Prepared samples were incubated at 30° C. for 10 min and stopped as indicated above. Conditions used gave rates that were linear both with time and enzyme concentration. Assays were performed in triplicate. By definition, IC50 is the concentration of inhibitor that reduces enzyme activity by 50%. IC50 was determined by regression with a minimum of two points in the linear region of the curve on either side of the IC50 (for a total of 5 points). The curve was generated from at least three separate studies conducted in triplicate in order to obtain the standard deviation given in the results section.

[7] = target: partially purified recombinant chicken sEH (Gallus gallus, UniProt Q45QT1); assay: Inhibitor assay with fluorescent substrate PHOME; type: biochemical; conditions: PHOME 50 μM
Method: Dilutions of enzyme, inhibitors and substrate were made in BisTris-HCl buffer (25 mM, pH 7.0, 0.1 mg/ml BSA). The enzyme was incubated with 20 μL of inhibitor dilutions for 10 min prior to substrate addition. After this incubation, 50 μL of (3-phenyl-oxiranyl)-acetic acid cyano-(6-methoxy-naphthalen-2-yl)-methyl ester (PHOME) at a final concentration of 50 μM (1% final DMSO content per well) was added.
The inhibitor screen occurred in two steps. The first step was incubation with a final inhibitor concentration of 100 nM. Positive hits obtained in this primary screen were then incubated with inhibitors at final concentrations of 1, 10, and 100 nM.

[8] = system: chicken sEH phosphatase activity; assay: Phosphatase assay; type: biochemical; conditions: conditions developed for the mammalian enzyme phosphatase assay
Method: The phosphatase substrate, threo-9,10-phosphonooxy-hydroxy-octadecanoic acid was synthesized as previously described (Newman, J. W. et al., Proc. Natl. Acad. Sci. USA 100: 1558-1563 (2003)). The assay was performed and analyzed by HPLC-MS/MS as described (Newman, J. W. et al., Proc. Natl. Acad. Sci. USA 100:1558-1563 (2003)).

[9] = substrate: c1ccc(CC2OC2c2ccccc2)cc1; assay: Radiotracer epoxide hydrolase activity and kinetic parameters using t-DPPO as substrate; type: biochemical; conditions: other: t-DPPO as substrate; recombinant chicken sEH; pH 7.4; 30.0 °C
Method: as §1
A solution of [^3H] t-DPPO (1 μL in DMF) was added to 100 μL of enzyme preparation in sodium phosphate buffer (0.1 M, pH 7.4) containing 0.1 mg/mL of BSA ([S]final=50 μM). […]

[10] = partially purified recombinant chicken sEH, read-out: Chicken sEH IC50

Molecule: c1ccc(CC2OC2c2ccccc2)cc1 (racemic) [t-DPPO, trans-1,3-diphenylpropene oxide]
- kcat/Km ratio of chicken enzyme, fold lower than human enzyme ([1]; compared to human sEH): 20 fold
- kcat/Km ratio of chicken enzyme, fold lower than mouse enzyme ([1]; compared to mouse sEH): 100 fold
- Specific activity ([1]; recombinant chicken sEH, mean ± SD of 3 experiments): 823.1 ± 27.3 nmol/min/mg
- Km [2]: 4.3 µM
- Specific activity [2]: 17000 ± 300.0 nmol/min/mg
- kcat [2]: 18.0 ± 0.3 s⁻¹
- Km [3]: 6.2 µM
- Specific activity [3]: 4500 ± 200.0 nmol/min/mg
- kcat [3]: 4.3 ± 0.3 s⁻¹

Molecule: CCCCC/C=C\C/C=C\CC1OC1C/C=C\CCCC(=O)O (stereo not drawn) [8,9-EET]
- Specific activity [4]: 11.6 ± 0.1 nmol/min/mg
- Specific activity [5]: 370.0 nmol/min/mg

Molecule: CCCCC/C=C\CC1OC1C/C=C\C/C=C\CCCC(=O)O (stereo not drawn) [11,12-EET]
- Specific activity [4]: 12.0 ± 1.2 nmol/min/mg
- Specific activity [5]: 640.0 nmol/min/mg

Molecule: CCCCCC1OC1C/C=C\C/C=C\C/C=C\CCCC(=O)O (stereo not drawn) [14,15-EET]
- Activity relative to the activity measured with t-DPPO [4]: less than 1/30
- Specific activity [4]: 24.5 ± 2.1 nmol/min/mg
- Specific activity [5]: 1260.0 nmol/min/mg

Molecule: O=C(O)CCCCCCCCCCCNC(=O)NC12CC3CC(CC(C3)C1)C2 [AUDA, 12-(3-Adamantan-1-yl-ureido)dodecanoic acid]
- IC50 [6]: 13.7 nM

Molecule: O=C(O)CCCCCCCCCCCNC(=O)NC12CC3CC(CC(C3)C1)C2 [Compound 700]
- IC50 ([7]; Chicken sEH IC50, partially purified recombinant chicken sEH): 12.6 ± 1.6 nM

Molecule: O=C(NCCCc1ccccc1)NC1CCC(Oc2ccc(F)cc2)CC1 (stereo not drawn) [Compound 1270]
- IC50 [7, 10]: 3.5 ± 0.1 nM

Molecule: threo-9,10-phosphonooxy-hydroxy-octadecanoic acid
- Hydrolysis of phosphatase substrate by chicken enzyme [8]: did not hydrolyze

B1: Recombinant chicken sEH (Gallus gallus) (protein)
chain: MARRFALFDLGGVLFGPGLQHFLGSCERSYALPRNFLRDVLFAGGSDSPHAKVMRGQITLSQLFLEVDEGCRQHASTAGITLPTTFSIAHVFEEMAAKGTLNAPLLRAASMLRRNGFKTCVFTNNWVDDSMGRLFTSSLLTVVQRHFDLLIESCRVGLHKPDPRIYTYALEVLQAQPQEVIFLDDIGENLKPAREMGMATILVRDTDTVLKELQELSGVQLLQQEEPLPTTCDPATMSHGYVPIRPGVQLHFVEMGHGPAICLCHGFPESWLSWRYQIPALADAGFRVIALEMKGYGESTAPPEIEEYSQEQICKDLTIFLDKLGIPQAVFIGHDWGGAVVWNMALFYPERVRAVASLNTPYRPADPTVDIVETMKSFPMFDYQFYFQEPGVAEAELEKDIGRTLKALIRSTRPEDRLHSVPGLLGVQERGGLLVGFPEDIPESLILHGAELQYYIERFQRSGFRGPLNWYRNMRPNWRWALSAKDRKILMPALMVTAGKDVVLLPSMSKGMEEWIPQLRRGHLEACGHWTQMERPAALNRILVEWLEGLPPDGAMLRVSRL
- Km [9]: 25.3 µM

The remaining lines, values ahead:

- IC50 [7, 10]: 5.7 ± 0.3 nM
Molecule: CCCCCOC(=O)C1CCCC(NC(=O)NC23CC4CC(CC(C4)C2)C3)C1 (stereo not drawn) [Compound 861]

- IC50 [7, 10]: 5.2 ± 0.2 nM
Molecule: CCCCCOC(=O)C1CCC(NC(=O)NC23CC4CC(CC(C4)C2)C3)CC1 (stereo not drawn) [Compound 863]

- IC50 [7, 10]: 1.7 ± 0.1 nM
Molecule: C=CCOC1CCC(NC(=O)NC23CC4CC(CC(C4)C2)C3)CC1 (stereo not drawn) [Compound 982]

- IC50 [7, 10]: 5.3 ± 0.2 nM
Molecule: CC(C)=CCOC1CCC(NC(=O)NC23CC4CC(CC(C4)C2)C3)CC1 (stereo not drawn) [Compound 983]

- IC50 [7, 10]: 2.7 ± 0.3 nM
Molecule: O=C(NC1CCCCCC1)NC1CCC(Oc2ccc(F)cc2)CC1 (stereo not drawn) [Compound 1271]

- IC50 [7, 10]: 5.1 ± 0.3 nM
Molecule: O=C(NC1CCCCCCC1)NC1CCC(Oc2ccc(F)cc2)CC1 (stereo not drawn) [Compound 1272]

- IC50 [7, 10]: 4.4 ± 0.1 nM
Molecule: O=C(Nc1cccc(C(F)(F)F)c1)NC1CCC(OCc2c(F)cccc2F)CC1 (stereo not drawn) [Compound 1285]

- IC50 [7, 10]: 3.5 ± 0.1 nM
Molecule: O=C(Nc1ccc(C(F)(F)F)cc1)NC1CCC(OCc2c(F)cccc2F)CC1 (stereo not drawn) [Compound 1289]

- IC50 [7, 10]: 2 ± 0.1 nM
Molecule: O=C(Nc1cccc(Cl)c1)NC1CCC(OCc2c(F)cccc2F)CC1 (stereo not drawn) [Compound 1302]

- IC50 [7, 10]: 2.4 ± 0.1 nM
Molecule: O=C(Nc1cccc(Br)c1)NC1CCC(OCc2c(F)cccc2F)CC1 (stereo not drawn) [Compound 1308]

- IC50 [7, 10]: 1.9 ± 0.1 nM
Molecule: O=C(NCCCc1ccccc1)NC1CCC(OCc2c(F)cccc2F)CC1 (stereo not drawn) [Compound 1318]

- IC50 [7, 10]: 2.6 ± 0.1 nM
Molecule: O=C(NC1CCCCCC1)NC1CCC(Oc2ccc(F)cc2)CC1 (stereo not drawn) [Compound 1515]
